In patent EP0528699B1, “Saishin N derivatives, process for their preparation and anti-ulcer agents containing them” (TOKYO TANABE COMPANY LIMITED, priority 1991, dated 1993) one finds inhibition in vivo data, which are given here for 32 molecules.

SMILES strings stand for the structures.

The first test concerns Serotonin-Induced Ulcers. As to the kind of experiment: Serotonin-Induced Ulcers. It is filed as in vivo, male Wister rats. The note with it: Rattus norvegicus, 4.5 h; dose 20 mg/kg intraduodenally 30 minutes before Serotonin creatinine sulfate 30 mg/kg subcutaneously; read-out: Serotonin, inhibiting ratio. Here is the method:
(§1) Experiments on Hydrochloric acid-Ethanol-Induced Ulcers, Aspirin-Induced Ulcers, Water-Immersion stress-Induced Ulcers, Shay's Ulcers and Serotonin-Induced Ulcers were carried out using male Wister rats weighing about 200g in groups of six. Experiments on Ischemia-Reperfusion -Induced Gastric Lesions were carried out using male SD rats weighing about 250g in groups of six. Other than for the tests on Ischemia-Reperfusion-Induced Gastric Lesions Models, the test compounds were prepared by mixing thoroughly with polyethyleneglycol and 0.5% sodium carboxymethyl cellulose solution and emulsifying vigorously. Activities against respective ulcer models were evaluated by an inhibiting ratio obtained by dividing the difference between the ulceration indexes of the non-administered group and the test compound group by the non-administered group.
To each rat which had been fasted for 24 hours, 30 mg/kg of a solution of serotonin creatinine sulfate in a saline solution was administered subcutaneously. Each rat was then slaughtered after 4 and a half hours and area of gastric mucosal lesion formed facing the center line of greater curvature of the corpus ventriculi of stomach was measured and ulceration index was calculated based on the area. The test compound was administered intraduodenally 30 minutes before the administration of the Serotonin creatinine sulfate.
(§2) The results of Aspirin-Induced Ulcers, Water-immersion stress-Induced Ulcers, Shay's Ulcers, Serotonin-induced Ulcers and Ischemia-Reperfusion-Induced Gastric lesions are shown in Table 3.
On to `CC(=O)OC1CC(C)C(=O)CC(C)(C)C1OC(C)=O` (stereo not drawn) [AU117, 2,4-cis-4,5-diacetoxy-2,6,6-trimethylcycloheptan-1-one], for which the inhibition in vivo at 20 mg/kg turned out to be 60%. Same read-out and setting: next, `CC1=CC(OC(=O)C=Cc2ccc(N)cc2)C(O)C(C)(C)CC1=O` (stereo not drawn) [AU401, 4-(4-aminocinnamoyloxy)-5-hydroxy-2,6,6-trimethyl-2-cyclohepten-1-one]: 68%.

For another test, the system named is Hydrochloric acid-Ethanol-Induced Ulcers. As to the kind of experiment: Hydrochloric acid-Ethanol-Induced Ulcers. In kind it is in vivo, male Wister rats. The note with it: Rattus norvegicus, intraduodenal, 3 h, Table 1; dose 20 mg/kg intraduodenally three hours before hydrochloric acid - 60% ethanol; read-out: Inhibition ratio(%). As for the experimental part:
as §1
To each rat which had been fasted for 24 hours was orally administered 0.5ml of a mixed solution of 150 mM hydrochloric acid - 60% ethanol per 100g of weight. Each rat was slaughtered after one hour, a length of ulcer formed at the fundus gland area of stomach was measured and ulceration index was calculated based on the length. The test compound was administered intraduodenally one hour or three hours before the administration of mixed solution of hydrochloric acid - 60% ethanol.
For `CC(=O)OC1CC(C)C(=O)CC(C)(C)C1OC(C)=O` (stereo not drawn) [AU117, 2,4-cis-4,5-diacetoxy-2,6,6-trimethylcycloheptan-1-one], the inhibition in vivo at 20 mg/kg was determined as 62%. Same read-out and setting: next, `CC1=CC(O)C(OC(=O)c2ccc(N)cc2)C(C)(C)CC1=O` (stereo not drawn) [AU216, 5-(4-aminobenzoyloxy)-4-hydroxy-2,6,6-trimethyl-2-cyclohepten-1-one]: 23%; `CC(=O)Oc1ccc(C(=O)OC2C=C(C)C(=O)CC(C)(C)C2O)cc1` (stereo not drawn) [AU217, 4-(4-acetoxybenzoyloxy)-5-hydroxy-2,6,6-trimethyl-2-cyclohepten-1-one]: 48%.

Turning to `COC1C=C(C)C(=O)CC(C)(C)C1OC(=O)c1ccccc1C(=O)O` (stereo not drawn) [AU218, 5-(2-carboxybenzoyloxy)-4-methoxy-2,6,6-trimethyl-2-cyclohepten-1-one], the inhibition in vivo at 20 mg/kg amounted to 34%. As to `CC1=CC(OC(=O)c2ccc([N+](=O)[O-])cc2Cl)C(O)C(C)(C)CC1=O` (stereo not drawn) [AU219, 4-(2-chloro-4-nitrobenzoyloxy)-5-hydroxy-2,6,6-trimethyl-2-cyclohepten-1-one], the inhibition in vivo at 20 mg/kg was 60%. Regarding `COC1C(OC(=O)c2ccccc2)C=C(C)C(=O)CC1(C)C` (stereo not drawn) [AU223, 4-benzoyloxy-5-methoxy-2,6,6-trimethyl-2-cyclohepten-1-one], the inhibition in vivo at 20 mg/kg turned out to be 49%. For `CC(=O)Nc1cccc(C(=O)OC2C(OC(C)=O)C=C(C)C(=O)CC2(C)C)c1` (stereo not drawn) [AU224, 5-(3-acetamidobenzoyloxy)-4-acetoxy-2,6,6-trimethyl-2-cyclohepten-1-one], the inhibition in vivo at 20 mg/kg was 47%. As to `CC1=CC(=O)C(OC(=O)c2ccccc2)C(C)(C)CC1=O` (stereo not drawn) [AU225, 5-benzoyloxy-2,6,6-trimethyl-2-cyclohepten-1,4-dione], the inhibition in vivo at 20 mg/kg was determined as 36%. On the same count and under the same terms, the value for `COC1C(O)C=C(C)C(OC(=O)c2ccccc2)CC1(C)C` (stereo not drawn) [AU227, 1-benzoyloxy-5-methoxy-2,6,6-trimethyl-2-cyclohepten-4-ol] was 47%; that for `CC1=CC(OC(=O)c2ccc(N(C)C)cc2)C(O)C(C)(C)CC1=O` (stereo not drawn) [AU236, 4-(4-dimethylaminobenzoyloxy)-5-hydroxy-2,6,6-trimethyl-2-cyclohepten-1-one] was 45%; that for `CC(=O)Nc1ccc(C(=O)OC2C=C(C)C(=O)CC(C)(C)C2O)cc1` (stereo not drawn) [AU237, 4-(4-acetamidobenzoyloxy)-5-hydroxy-2,6,6-trimethyl-2-cyclohepten-1-one] was 30%.

Consider `COC1C(OC(=O)c2ccc([N+](=O)[O-])cc2)C=C(C)C(=O)CC1(C)C` (stereo not drawn) [AU238, 5-methoxy-4-(4-nitrobenzoyloxy)-2,6,6-trimethyl-2-cyclohepten-1-one], for which the inhibition in vivo at 20 mg/kg stood at 40%. Same read-out and setting: next, `COC1C(OC(=O)c2ccc(N)cc2)C=C(C)C(=O)CC1(C)C` (stereo not drawn) [AU239, 4-(4-aminobenzoyloxy)-5-methoxy-2,6,6-trimethyl-2-cyclohepten-1-one]: 41%. Still for that read-out and setting: next, `CC1=CC(O)C(OC(=O)c2ccc(N)cc2N)C(C)(C)CC1=O` (stereo not drawn) [AU241, 5-(2,4-diaminobenzoyloxy)-4-hydroxy-2,6,6-trimethyl-2-cyclohepten-1-one]: 37%; `CC1=CC(OC(=O)c2ccc(N)cc2N)C(O)C(C)(C)CC1=O` (stereo not drawn) [AU242, 4-(2,4-diaminobenzoyloxy)-5-hydroxy-2,6,6-trimethyl-2-cyclohepten-1-one]: 60%. The same measure, in the same setting: the value for `COC1C=C(C)C(=O)CC(C)(C)C1OC(=O)Cc1csc(N)n1` (stereo not drawn) [AU243, 5-(2-aminothiazol-4-yl) acetoxy-4-methoxy-2,6,6-trimethyl-2-cyclohepten-1-one] was 29%. `CC1=CC(OC(=O)c2ccc(N)cc2)C2OC1(OCCO)CC2(C)C` (stereo not drawn) [AU249, 4-(4-aminobenzoyloxy)-1-(2-hydroxyethoxy)-2,6,6-trimethyl-8-oxabicyclo [3.2.1] oct-2-ene]: the inhibition in vivo at 20 mg/kg was 65%. Turning to `CC1CC(O)C2OC1(OC(=O)c1ccc([N+](=O)[O-])cc1)CC2(C)C` (stereo not drawn) [AU250, 2,4-cis-1-(4-nitrobenzoyloxy):2,6,6-trimethyl-8-oxabicyclo [3.2.1] octan-4-ol], the inhibition in vivo at 20 mg/kg is 36%.

Consider `CC1CC(O)C2OC1(OC(=O)c1ccc(N)cc1)CC2(C)C` (stereo not drawn) [AU251, 2,4-cis-1-(4-aminobenzoyloxy)-2,6,6-trimethyl-8-oxabicyclo [3.2.1] octan-4-ol], for which the inhibition in vivo at 20 mg/kg was 30%. In the case of `CC1CC(O)C2OC1(OC(=O)c1ccccc1)CC2(C)C` (stereo not drawn) [AU252, 2,4-cis-1-benzoyloxy-2,6,6-trimethyl-8-oxabicyclo [3.2.1] octan-4-ol], the inhibition in vivo at 20 mg/kg came out at 31%. Same read-out and setting: the value for `CC1=CC(OC(=O)C=Cc2ccc(N)cc2)C(O)C(C)(C)CC1=O` (stereo not drawn) [AU401, 4-(4-aminocinnamoyloxy)-5-hydroxy-2,6,6-trimethyl-2-cyclohepten-1-one] was 49%; that for `CC1=CC(OC(=O)c2ccco2)C(O)C(C)(C)CC1=O` (stereo not drawn) [AU403, 4-(2-furoyloxy)-5-hydroxy-2,6,6-trimethyl-2-cyclohepten-1-one] was 31%. On to `COC1C=C(C)C(=O)CC(C)(C)C1OC(=O)c1ccc(N)c(N)c1` (stereo not drawn) [AU410, 5-(3,4-diaminobenzoyloxy)-4-methoxy-2,6,6-trimethyl-2-cyclohepten-1-one], for which the inhibition in vivo at 20 mg/kg worked out at 75%. On the same count and under the same terms, next, `COc1cc(C=CC(=O)OC2C(O)C=C(C)C(=O)CC2(C)C)ccc1O` (stereo not drawn) [AU414, 4-hydroxy-5-(4-hydroxy-3-methoxycinnamoyloxy)-2,6,6-trimethyl-2-cyclohepten-1-one]: 89%; `COC1C=C(C)C(=O)CC(C)(C)C1OC(=O)c1ccc2nc(N)[nH]c2c1` (stereo not drawn) [AU415, 5-(2-aminobenzimidazolyl-5-carbonyloxy)-4-methoxy-2,6,6-trimethyl-2-cyclohepten-1-one]: 30%. On the same count and under the same terms, the value for `COc1cc(C=CC(=O)OC2C=C(C)C(=O)CC(C)(C)C2O)ccc1O` (stereo not drawn) [AU416, 5-hydroxy-4-(4-hydroxy-3-methoxycinnamoyloxy)-2,6,6-trimethyl-2-cyclohepten-1-one] was 72%; that for `COc1cc(C=CC(=O)OC2C=C(C)C3(OC)CC(C)(C)C2O3)ccc1O` (stereo not drawn) [AU417, 4-(4-hydroxy-3-methoxycinnamoyloxy)-1-methoxy-2,6,6-trimethyl-8-oxabicyclo [3.2.1] oct-2-ene] was 69%; that for `CC1=CC(O)C(OC(=O)c2nc[nH]c2C)C(C)(C)CC1=O` (stereo not drawn) [AU504, 4-hydroxy-5-(5-methyl-4-imidazolylcarbonyloxy)-2,6,6-trimethyl-2-cyclohepten-1-one] was 39%.

In the case of `CC1=CC(OC(=O)C=Cc2ccc(O)cc2)C(O)C(C)(C)CC1=O` (stereo not drawn) [AU506, 5-hydroxy-4-(4-hydroxycinnamoyloxy)-2,6,6-trimethyl-2-cyclohepten-1-one], the inhibition in vivo at 20 mg/kg came to 81%. Consider `COC1C=C(C)C(=O)CC(C)(C)C1OC(=O)c1ccc2nc[nH]c2c1` (stereo not drawn) [AU507, 5-(5-benzimidazolylcarbonyloxy)-4-methoxy-2,6,6-trimethyl-2-cyclohepten-1-one], for which the inhibition in vivo at 20 mg/kg was determined as 63%. With `COC12CC(C)(C)C(O1)C(OC(=O)C=Cc1ccc(O)cc1)C=C2C` (stereo not drawn) [AU508, 4-(4-hydroxycinnamoyloxy)-1-methoxy-2,6,6-trimethyl-8-oxabicyclo [3.2.1] oct-2-ene], the inhibition in vivo at 20 mg/kg was 82%. Still for that read-out and setting: the value for `COc1ccc(COC2C=C(C)C(=O)CC(C)(C)C2O)cc1` (stereo not drawn) [AUM09, 5-hydroxy-4-(4-methoxybenzyloxy)-2,6,6-trimethyl-2-cyclohepten-1-one] was 17%.

In the next test the test system is Water-Immersion stress-Induced Ulcers. The experiment in a line: Water-Immersion stress-Induced Ulcers. It is filed as in vivo, male Wister rats. Conditions: Rattus norvegicus, po, 10 h; dose 20 mg/kg orally 10 minutes before the exposure to stress; read-out: Water-Immersion Stress, inhibiting ratio. Here is the method:
as §1
Each rat which had been fasted for 15 hours was immobilized in a stress cage and immersed to chest depth in a water bath at 21°C. Each rat was slaughtered after 10 hours, a length of ulcer formed at the fundus gland area of stomach was measured and ulceration index was calculated based on the length. The test compound was administered orally 10 minutes before the exposure to stress.
as §2
Consider `CC1=CC(OC(=O)c2ccc(N)cc2)C2OC1(OCCO)CC2(C)C` (stereo not drawn) [AU249, 4-(4-aminobenzoyloxy)-1-(2-hydroxyethoxy)-2,6,6-trimethyl-8-oxabicyclo [3.2.1] oct-2-ene], for which the inhibition in vivo at 20 mg/kg is 33%. Regarding `COc1cc(C=CC(=O)OC2C(O)C=C(C)C(=O)CC2(C)C)ccc1O` (stereo not drawn) [AU414, 4-hydroxy-5-(4-hydroxy-3-methoxycinnamoyloxy)-2,6,6-trimethyl-2-cyclohepten-1-one], the inhibition in vivo at 20 mg/kg came out at 41%.
